What was measured:
HIF-1α [1] = tested on: HIF-1α
Description: HIF-1α is stabilized in Mrs2−/− mice. To examine the intrinsic role of Mrs2, Mrs2^−/− mice were challenged to LPS-induced inflammatory response. It was noticed that there was a barely detectable HIF-1α stabilization in control but a significant HIF-1α protein accumulation following LPS stimulation in Mrs2^−/− hepatocytes (Daw et al., 2020). […] It was envisioned that loss of Mrs2 in hepatocyte mitochondria might control metabolite fluxes that regulates HIF-1α stability under normoxic conditions. HIF-1α is the most commonly studied transcription factor that responds to oxygen tension and its stabilization controls numerous metabolic cascades, including glycolysis and oxidative phosphorylation (Kaelin and Ratcliffe, 2008; Lum et al., 2007; Semenza, 2013). A targeted metabolite screen was conducted to identify whether these metabolites potentially altered in Mrs2^−/− control HIF-1α stabilization. WT hepatocytes were treated with the PHD inhibitor FG-4952 for 6 hours in the presence or absence of metabolites (Buckley et al., 2012). […] Next it was explored whether citric acid mediated HIF-1α destabilization is a hydroxylation dependent mechanism by reconstitution of hydroxylation-dead mutant HIF-1α in COS-7 cells (Yan et al., 2007). […] Next tested the potency of citric acid and sodium citrate was tested. Hepatocytes isolated from WT or Mrs2^−/− mice were treated for 6 hours. HIF-1α stabilization was less affected by di- or tri-sodium citrate than by citric acid (FIG. 9G). […] The citric acid-mediated HIF-1α destabilization was intact in multiple chemical modalities (FIG. 9H) and the intracellular chelation of Mg^2+ ions suppressed FG-4952-induced HIF-1α stabilization (FIG. 9I). […] Furthermore, COS-7 cells were more sensitive to the HIF-1α stabilizing effect compared to hepatocytes. […] Next HIF-1α abundance was tested in liver tissues harvested from dietary cohorts. HIF-1α protein expression/stabilization was prominent in both Mrs2^−/− and Mrs2^−/− WD, whereas HIF-1α protein was nearly completely absent in WT WD (FIG. 9M). This supports the elevation of HIF-1α protein level as a key mechanism driving transcription changes in Mrs2^−/− WD livers.
Immunoblotting. Crushed tissues were homogenized in lysis buffer (ThermoFisher) on ice for one minute (20-30 strokes) using an automatic Dounce homogenizer set to 2000 RPM. Whole cell lysate was prepared in lysis buffer (Abcam) using 3 sets of 3-second sonication (power level 3) intervals on ice. Protein concentration was estimated using Pierce BCA assay kit and samples were prepared and heated for 90° C. for 5 minutes. Equal amounts of protein were loaded and separated on 4%-12% Bis-Tris polyacrylamide gel (Thermo Fisher Scientific), transferred to a PVDF membrane, blocked for 1-2 h using 5% fat free skim milk, washed and finally, probed with corresponding antibodies as specified below. Antibodies were from Cell Signaling Technology (HIF-1α and Hydroxy HIF-1α dilution 1:3000, MCU dilution 1.5000, MICU1 dilution 1:3000), Abcam Abcam (CPT-1a, CPT-2, OXPHOS cocktail dilution 1:3000), ZYMED Laboratories (β-actin; dilution 1:1,000), and Amersham (secondary antibodies conjugated with peroxidase). Development was done using X-ray film using a series of timed exposures and Image J was used for densitometric analysis on scanned film images.

HIF-1α [2] = assay: HIF-1α stabilization in COS-7 cells; assay type: cell-based
Description: HIF-1α is stabilized in Mrs2−/− mice. To examine the intrinsic role of Mrs2, Mrs2^−/− mice were challenged to LPS-induced inflammatory response. It was noticed that there was a barely detectable HIF-1α stabilization in control but a significant HIF-1α protein accumulation following LPS stimulation in Mrs2^−/− hepatocytes (Daw et al., 2020). […] It was envisioned that loss of Mrs2 in hepatocyte mitochondria might control metabolite fluxes that regulates HIF-1α stability under normoxic conditions. HIF-1α is the most commonly studied transcription factor that responds to oxygen tension and its stabilization controls numerous metabolic cascades, including glycolysis and oxidative phosphorylation (Kaelin and Ratcliffe, 2008; Lum et al., 2007; Semenza, 2013). A targeted metabolite screen was conducted to identify whether these metabolites potentially altered in Mrs2^−/− control HIF-1α stabilization. WT hepatocytes were treated with the PHD inhibitor FG-4952 for 6 hours in the presence or absence of metabolites (Buckley et al., 2012). […] Next it was explored whether citric acid mediated HIF-1α destabilization is a hydroxylation dependent mechanism by reconstitution of hydroxylation-dead mutant HIF-1α in COS-7 cells (Yan et al., 2007). […] Next tested the potency of citric acid and sodium citrate was tested. Hepatocytes isolated from WT or Mrs2^−/− mice were treated for 6 hours. […]

HIF-1α [3] = assay: HIF-1α stabilization in human kidney cell line (HK-2); assay type: cell-based; details: HK-2 treated with CoCl2, metabolites 6 hours
Mrs2 [4] = target: T1, Mrs2 (Mus musculus, UniProt Q5NCE8); assay: Mrs2-mediated mMg2+ uptake in digitonin permeabilized hepatocytes (Mag-Green, extramitochondrial Mg2+ clearance); assay type: cell-based, murine; details: permeabilized cell system
T1 construct: endogenous in cells; host or cells: primary murine hepatocytes (C57BL/6J mice)
T1 sequence (Q5NCE8 54-434): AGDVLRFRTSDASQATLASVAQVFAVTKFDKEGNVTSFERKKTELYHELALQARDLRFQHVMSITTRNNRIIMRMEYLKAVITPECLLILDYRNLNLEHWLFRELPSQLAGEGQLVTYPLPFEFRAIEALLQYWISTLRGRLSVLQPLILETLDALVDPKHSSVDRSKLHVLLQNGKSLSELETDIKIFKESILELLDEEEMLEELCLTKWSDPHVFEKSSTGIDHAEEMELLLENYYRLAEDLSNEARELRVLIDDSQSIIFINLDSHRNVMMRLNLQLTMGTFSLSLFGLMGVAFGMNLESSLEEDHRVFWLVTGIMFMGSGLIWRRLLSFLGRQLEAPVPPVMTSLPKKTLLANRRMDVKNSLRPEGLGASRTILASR
Protocol: (§1) Bacterial CorA forms a pentameric complex that selectively drives Mg2+ uptake in an electrogenic manner. […] Mrs2 is the eukaryotic homologue of CorA and contains two transmembrane domains with a well-conserved F/Y-G-M-N motif; therefore, CorA blockers were tested to determine if they alter Mrs2-mediated mMg^2+ uptake (Moomaw and Maguire, 2008). Digitonin permeabilized hepatocytes were utilized to measure the inhibitory effect and determine its IC50. Permeabilized cells were treated with CPACC followed by a 1 mM bolus of MgCl2 (FIG. 10B). A 1 mM Mg^2+ bolus was added after baseline recording, and the extramitochondrial Mg^2+ clearance was used as a read-out for Mrs2-mediated mMg^2+ uptake using Mag-Green as a Mg^2+ indicator. […] We next investigated Mrs2 inhibition in intact hepatocytes loaded with Mag-Green-AM. […] Next CPACC was examined to determine if it had any effect on MCU-mediated mCa^2+ uptake in permeabilized cells. […] The availability of the compound to intact cells was measured using graphite furnace atomic absorption spectroscopy (GFAAS) and bicinchoninic acid in parallel.
Spectrofluorimetric measurement of mitochondrial Mg^2+ and Ca^2+ dynamics and citrate mediated MagGreen fluorescence quenching. Fluorescence measurements were conducted in a multiwavelength excitation dual wavelength emission spectrofluorometer (Delta RAM, PTI, HORIBA). […]

Mrs2 [5] = target: T1, Mrs2; assay: Mrs2 inhibition in intact hepatocytes loaded with Mag-Green-AM, confocal, L-lactate stimulation; assay type: cell-based, murine
Protocol: as §1, with “parallel. […] Encouraged by the potent inhibitory effect of CPACC and cellular permeability, we next measured the cytotoxicity of CPACC in cells. […]” for “parallel.”
Evaluation of dose dependent Mrs2 inhibition by confocal live cell imaging system. […] Data was quantified using Leica Application Suite X.

Structure (SMILES) | response of hepatocytes from Mrs2^−/− mice to the destabilizing effect (HIF-1α [1]) | HIF-1α destabilizing effect in homogenate (HIF-1α [1]; FG-4592 treated WT hepatocyte homogenate) | time course of HIF-1α destabilization (HIF-1α [1]; FG-4592 treated hepatocytes) | effect on HIF-1α stabilized by PHD inhibitor (HIF-1α [1]; WT hepatocytes, FG-4952, 6 hours) | concentration at which HIF-1α destabilization was observed (HIF-1α [1]; WT hepatocytes, PHD inhibitor, 6 hours) [mM] | constitutively stabilized (hydroxylation-dead) HIF-1α mutant (HIF-1α [2]) | FG-4592 dependent HIF-1α stabilization (HIF-1α [2]; 10 mM) | HIF-1α destabilizing activity (HIF-1α [3]) | inhibitory effect on Mrs2 activity (Mrs2 [4]) | effect on Mrs2 in intact hepatocytes (Mrs2 [5])
O=C(O)CC(O)(CC(=O)O)C(=O)O [citric acid] | partially resistant | partly maintained | very rapid and robust | destabilized HIF-1α | ≥ 6 | unaffected | completely blunted | replicates the observations in hepatocytes |  | 
N.N.N.N.N.N.[Cl-].[Cl-].[Cl-].[Co+3] [cobalt(III)hexaammine, Hexaamminecobalt (III) chloride, reference compound] |  |  |  |  |  |  |  |  | limited inhibition | absent
